Drawing on ChEMBL document CHEMBL2016499, “Monoenomycin: A Simplified Trienomycin A Analogue that Manifests Anticancer Activity” (ACS Med Chem Lett, 2011), this text covers IC50 for 11 molecules.

In one test the test system is MCF7. The test can be described thus: Cytotoxicity against human MCF7 cells at 72 hrs by MTS assay. Format: functional, cell-based. The following applies: MCF7, 72 h. In general terms: Tetrazolium dyes change colour on reduction, which living cells bring about.
For the next test, the system named is HeLa. Description: Cytotoxicity against human HeLa cells at 72 hrs by MTS assay. Format: functional, cell-based.

In general, IC50 refers to the concentration at which inhibition is half-maximal. As for `COc1cc2cc(c1)NC(=O)CCCCCCC=CC[C@H](OC(=O)[C@@H](C)NC(=O)C1CCCCC1)CC/C(C)=C/CC2` (mixture of isomers), the results for the IC50 in the test with MCF7 and in the test with HeLa were 530 nM and 470 nM, respectively. As for `COc1cc2cc(c1)NC(=O)CCCCCCC=CC[C@H](OC(=O)[C@@H](C)NC(=O)C1CCCCC1)CC/C(C)=C\CC2` (mixture of isomers), the IC50 in the test with MCF7 and with HeLa was over 100000 nM in each case. As for `COc1cc2cc(c1)NC(=O)CCCCCCC=CC[C@H](OC(=O)CNC(=O)C1CCCCC1)CC/C(C)=C/CC2` (mixture of isomers), the figures for the IC50 in the test with MCF7 and with HeLa were 12000 nM and 13000 nM, respectively. On to `COc1cc2cc(c1)NC(=O)CCCCCCC=CC[C@H](OC(=O)[C@H](C)NC(=O)C1CCCCC1)CC/C(C)=C/CC2` (mixture of isomers), for which the values for the IC50 in the test on MCF7 and in the test with HeLa were 1900 nM and 1700 nM, respectively. The corresponding values for `COc1cc2cc(c1)NC(=O)CCCCCCC=CC[C@H](OC(=O)[C@H](NC(=O)C1CCCCC1)C(C)C)CC/C(C)=C/CC2` (mixture of isomers) are 1000 nM and 9100 nM. The matching figures for `COc1cc2cc(c1)NC(=O)CCCCCCC=CC[C@H](OC(=O)[C@@H](Cc1ccccc1)NC(=O)C1CCCCC1)CC/C(C)=C/CC2` (mixture of isomers): 5100 nM and 4600 nM.

Take `COc1cc2cc(c1)NC(=O)CCCCCCC=CC[C@H](OC(=O)[C@@H](CC(C)C)NC(=O)C1CCCCC1)CC/C(C)=C/CC2` (mixture of isomers): the IC50 in the test on MCF7 and with HeLa was over 100000 nM each time. For `COc1cc2cc(c1)NC(=O)CCCCCCC=CC[C@H](OC(=O)[C@@H](C)NC(=O)C1CCCC1)CC/C(C)=C/CC2` (mixture of isomers), the IC50 worked out at 720 nM in the test with MCF7 and 1600 nM in the test with HeLa. The corresponding values for `COc1cc2cc(c1)NC(=O)CCCCCCC=CC[C@H](OC(=O)[C@@H](C)NC(C)=O)CC/C(C)=C/CC2` (mixture of isomers) are 1700 nM and 2500 nM.

As for `COC1=C2C[C@@H](C)C[C@H](OC)[C@H](O)[C@@H](C)/C=C(\C)[C@H](OC(N)=O)[C@@H](OC)/C=C\C=C(/C)C(=O)NC(=CC1=O)C2=O` [GELDANAMYCIN], the IC50 is 53 nM with MCF7 and over 5000 nM in the test on HeLa. `CO[C@H]1/C=C/C=C/C=C/C[C@H](OC(=O)[C@@H](C)NC(=O)C2CCCCC2)[C@H](C)[C@@H](O)/C(C)=C\CCc2cc(O)cc(c2)NC(=O)C1` [TRIENOMYCIN A]: half-maximal inhibition in the test on HeLa (IC50) required 128 nM.
